Measured values taken from patent publication US20110178062A1, “INDOLE AND BENZOTHIOPHENE COMPOUNDS AS MODULATORS OF THE HISTAMINE H3 RECEPTOR” (priority 2007, published 2011).

What was measured:
human H3 receptor = molecular target: T1, human H3 receptor (Homo sapiens, UniProt Q9Y5N1); assay: Cyclic AMP Accumulation, SK-N-MC reporter cells (human H3); format: cell-based; details: SK-N-MC cells expressing reporter construct and human H3 receptor; read-out: Human pA2 (converted)
T1 construct: expressed in transfected cells; host or cells: SK-N-MC cells
T1 sequence (Q9Y5N1 whole entry): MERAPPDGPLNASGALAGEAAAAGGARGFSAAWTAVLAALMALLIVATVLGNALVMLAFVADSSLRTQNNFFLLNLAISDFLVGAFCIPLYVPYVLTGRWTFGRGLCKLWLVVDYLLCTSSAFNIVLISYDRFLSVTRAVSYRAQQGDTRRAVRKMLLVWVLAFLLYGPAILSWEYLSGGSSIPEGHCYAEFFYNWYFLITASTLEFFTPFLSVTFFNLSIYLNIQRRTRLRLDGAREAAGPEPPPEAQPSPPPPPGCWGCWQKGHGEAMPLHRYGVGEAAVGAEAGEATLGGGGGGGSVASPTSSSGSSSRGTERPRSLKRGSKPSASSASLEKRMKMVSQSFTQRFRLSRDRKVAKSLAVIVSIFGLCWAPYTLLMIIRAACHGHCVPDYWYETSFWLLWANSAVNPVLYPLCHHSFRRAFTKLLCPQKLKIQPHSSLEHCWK
Excerpt: (§1) Sublines of SK-N-MC cells were created that expressed a reporter construct and either the human or rat H3 receptor. The pA2 values were obtained as described by Barbier et al. (2004). Data for compounds tested in these assays are presented in Table 3, as an average of the results obtained (NT=not tested).

[1] = molecular target: T2, cloned human H3 receptors, stably expressed in SK-N-MC cells (Homo sapiens, UniProt Q9Y5N1); assay: H3 Receptor Binding (Human); details: average of the results obtained
T2 construct: expressed in transfected cells; host or cells: SK-N-MC cells
T2 sequence (Q9Y5N1 whole entry): as above
Method: Binding of compounds to the cloned human H3 receptors, stably expressed in SK-N-MC cells, was performed as described by Barbier, A. J. et al. (Br. J. Pharmacol. 2004, 143(5), 649-661). Data for compounds tested in this assay are presented in Table 1 as an average of the results obtained.

Rat H3 [2] = molecular target: T3, Rat H3 (Rattus norvegicus, UniProt Q9QYN8); assay: Cyclic AMP Accumulation, SK-N-MC reporter cells (rat H3); format: cell-based; design: expressed in transfected cells; host or cells: SK-N-MC cells (subline with reporter construct); details: SK-N-MC cells expressing reporter construct and rat H3 receptor; read-out: Rat pA2 (converted)
Excerpt: as §1
Target sequence in this assay (Q9QYN8 whole entry): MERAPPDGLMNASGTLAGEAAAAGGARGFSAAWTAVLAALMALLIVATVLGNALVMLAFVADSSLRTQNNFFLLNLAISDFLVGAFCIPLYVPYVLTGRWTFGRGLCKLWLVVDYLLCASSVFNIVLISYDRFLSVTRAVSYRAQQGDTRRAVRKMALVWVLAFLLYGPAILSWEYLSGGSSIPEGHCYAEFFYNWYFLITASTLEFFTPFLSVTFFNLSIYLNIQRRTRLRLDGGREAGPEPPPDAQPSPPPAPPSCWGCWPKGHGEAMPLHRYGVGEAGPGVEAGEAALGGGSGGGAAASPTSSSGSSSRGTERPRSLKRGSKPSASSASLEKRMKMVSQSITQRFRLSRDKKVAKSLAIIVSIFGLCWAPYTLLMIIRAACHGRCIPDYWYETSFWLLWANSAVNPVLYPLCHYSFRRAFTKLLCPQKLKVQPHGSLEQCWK

Rat H3 [3] = molecular target: T3, Rat H3; assay: H3 Receptor Binding (Rat), rat brain membranes, N-[3H]-α-methylhistamine; details: rat brain without cerebellum; 0.8 nM N-[3H]-α-methylhistamine; average of results
Method: A rat brain without cerebellum (Zivic Laboratories Inc., Pittsburgh, Pa.) was homogenized in 50 mM Tris-HCl/5 mM EDTA and centrifuged at 1,000 rpm for 5 min. The supernatant was removed and recentrifuged at 15,000 rpm for 30 min. Pellets were rehomogenized in 50 mM Tris/5 mM EDTA (pH 7.4). Membranes were incubated with 0.8 nM N—[^3H]-α-methylhistamine plus/minus test compounds for 60 min at 25° C. and harvested by rapid filtration over GF/C glass fiber filters (pretreated with 0.3% polyethylenimine) followed by four washes with buffer. Nonspecific binding was defined in the presence of 100 μM histamine. Inhibitory concentration (responsible for 50% inhibition of maximal effect, IC50) values were determined by a single site curve-fitting program (GraphPad, San Diego, Calif.) and converted to Ki values based on a N—[^3H]-α-methylhistamine dissociation constant (Kd) of 0.8 nM. Data for compounds tested in this assay are presented in Table 2 as an average of the results obtained.
Target sequence in this assay (Q9QYN8 1-397 isoform Q9QYN8-3): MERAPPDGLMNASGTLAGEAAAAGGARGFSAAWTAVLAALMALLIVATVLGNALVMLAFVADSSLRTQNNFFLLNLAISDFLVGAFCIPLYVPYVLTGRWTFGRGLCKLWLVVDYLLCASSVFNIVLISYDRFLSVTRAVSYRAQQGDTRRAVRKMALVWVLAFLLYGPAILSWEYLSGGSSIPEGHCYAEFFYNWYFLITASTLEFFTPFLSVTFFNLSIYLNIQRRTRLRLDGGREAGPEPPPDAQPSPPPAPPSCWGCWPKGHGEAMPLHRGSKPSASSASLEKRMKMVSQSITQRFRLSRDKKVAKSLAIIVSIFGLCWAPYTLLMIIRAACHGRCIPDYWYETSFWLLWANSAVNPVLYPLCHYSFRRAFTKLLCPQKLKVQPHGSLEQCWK

SMILES	Kb (human H3 receptor)	Ki [1]	Kb (Rat H3 [2])	Ki (Rat H3 [3])
CC(C)N1CCN(C(=O)c2ccc3c(CN4CCC(c5ccccc5)CC4)c[nH]c3c2)CC1 [Example 57, (4-Isopropyl-piperazin-1-yl)-[3-(4-phenyl-piperidin-1-ylmethyl)-1H-indol-6-yl]-methanone]	1.17 nM	1 nM	–	–
O=C(c1ccc2c(CN3CCN(C4CCCC4)CC3)c[nH]c2c1)N1CCCCCC1 [Example 91, Azepan-1-yl-[3-(4-cyclopentyl-piperazin-1-ylmethyl)-1H-indol-6-yl]-methanone]	46.8 nM	26 nM	67.6 nM	–
CC(C)N1CCN(C(=O)c2ccc3c(CN4CCCCC4)cn(S(C)(=O)=O)c3c2)CC1 [Example 25, (4-Isopropyl-piperazin-1-yl)-(1-methanesulfonyl-3-piperidin-1-ylmethyl-1H-indol-6-yl)-methanone]	3.09 nM	3 nM	–	–
Cn1cc(CN2CCOCC2)c2ccc(C(=O)N3CCN(C4CCC4)CC3)cc21 [Example 3, (4-Cyclobutyl-piperazin-1-yl)-(1-methyl-3-morpholin-4-ylmethyl-1H-indol-6-yl)-methanone]	0.501 nM	1 nM	–	–
CC(C)N1CCN(C(=O)c2ccc3c(CN4CCOCC4)cn(C)c3c2)CC1 [Example 1, (4-Isopropyl-piperazin-1-yl)-(1-methyl-3-morpholin-4-ylmethyl-1H-indol-6-yl)-methanone]	3.72 nM	2 nM	–	98 nM
CC(C)N1CCCN(C(=O)c2ccc3c(CN4CCOCC4)c[nH]c3c2)CC1 [Example 7, (4-Isopropyl-[1,4]diazepan-1-yl)-(3-morpholin-4-ylmethyl-1H-indol-6-yl)-methanone]	–	1 nM	2 nM	2 nM
O=C(c1ccc2c(CN3CCOCC3)c[nH]c2c1)N1CCN(C2CCC2)CC1 [Example 6, (4-Cyclobutyl-piperazin-1-yl)-(3-morpholin-4-ylmethyl-1H-indol-6-yl)-methanone]	0.155 nM	1 nM	–	–
O=C(c1cccc2c(CN3CCCCC3)c[nH]c12)N1CCN(C2CCC2)CC1 [Example 23, (4-Cyclobutyl-piperazin-1-yl)-(3-piperidin-1-ylmethyl-1H-indol-7-yl)-methanone]	0.575 nM	2 nM	–	–
O=C(c1cccc2c(CN3CCOCC3)c[nH]c12)N1CCN(C2CCC2)CC1 [Example 21, (4-Cyclobutyl-piperazin-1-yl)-(3-morpholin-4-ylmethyl-1H-indol-7-yl)-methanone]	1.1 nM	5 nM	–	19 nM
CC(C)N1CCN(C(=O)c2cccc3c(CN4CCOCC4)c[nH]c23)CC1 [Example 20, (4-Isopropyl-piperazin-1-yl)-(3-morpholin-4-ylmethyl-1H-indol-7-yl)-methanone]	8.13 nM	10 nM	–	–
O=C(c1ccc2c(CN3CCOCC3)c[nH]c2c1)N1CCN(C2CC2)CC1 [Example 5, (4-Cyclopropyl-piperazin-1-yl)-(3-morpholin-4-ylmethyl-1H-indol-6-yl)-methanone]	0.537 nM	1 nM	–	28 nM
CC(C)N1CCN(C(=O)c2ccc3c(CN4CCOCC4)c[nH]c3c2)CC1 [Example 4, (4-Isopropyl-piperazin-1-yl)-(3-morpholin-4-ylmethyl-1H-indol-6-yl)-methanone]	0.234 nM	1 nM	–	14 nM
CC(C)N1CCN(C(=O)c2ccc3scc(CN4CCCCC4)c3c2)CC1 [Example 102, (4-Isopropyl-piperazin-1-yl)-(3-piperidin-1-ylmethyl-benzo[b]thiophen-5-yl)-methanone]	–	17 nM	–	228 nM
CC(C)N1CCCN(C(=O)c2ccc3[nH]cc(CN4CCCCC4)c3c2)CC1 [Example 34, (4-Isopropyl-[1,4]diazepan-1-yl)-(3-piperidin-1-ylmethyl-1H-indol-5-yl)-methanone]	–	4 nM	–	133 nM
CC(C)N1CCN(C(=O)c2ccc3c(CN4CCN(c5ccccc5)CC4)c[nH]c3c2)CC1 [Example 45, (4-Isopropyl-piperazin-1-yl)-[3-(4-phenyl-piperazin-1-ylmethyl)-1H-indol-6-yl]-methanone]	1.82 nM	2 nM	–	–
O=C(c1ccc2c(CN3CCN(C4CCC4)CC3)c[nH]c2c1)N1CCCCC1 [Example 29, [3-(4-Cyclobutyl-piperazin-1-ylmethyl)-1H-indol-6-yl]-piperidin-1-yl-methanone]	–	11 nM	–	438 nM
O=C(c1ccc2scc(C(=O)N3CCCCC3)c2c1)N1CCN(C2CCC2)CC1 [Example 105, [5-(4-Cyclobutyl-piperazine-1-carbonyl)-benzo[b]thiophen-3-yl]-piperidin-1-yl-methanone]	–	215 nM	–	–
O=C(c1ccc2c(CN3CCN(C4CCCC4)CC3)c[nH]c2c1)N1CCC(c2ccccc2)CC1 [Example 86, [3-(4-Cyclopentyl-piperazin-ylmethyl)-1H-indol-6-yl]-(4-phenyl-piperidin-1-yl)-methanone]	–	27 nM	–	–
O=C(c1ccc2c(CN3CCN(C4CCCC4)CC3)c[nH]c2c1)N1CCSCC1 [Example 68, [3-(4-Cyclopentyl-piperazin-1-ylmethyl)-1H-indol-6-yl]-thiomorpholin-4-yl-methanone]	–	36 nM	–	–
CC(C)N1CCN(C(=O)c2ccc3c(CN4CCCC4)c[nH]c3c2)CC1 [Example 58, (4-Isopropyl-piperazin-1-yl)-(3-pyrrolidin-1-ylmethyl-1H-indol-6-yl)-methanone]	–	–	–	2 nM
O=C(c1ccc2c(CN3CCCN(C4CCC4)CC3)c[nH]c2c1)N1CCC(CO)CC1 [Example 83, [3-(4-Cyclobutyl-[1,4]diazepan-1-ylmethyl)-1H-indol-6-yl]-(4-hydroxymethyl-piperidin-1-yl)-methanone]	–	27 nM	–	–
O=C(c1ccc2c(CN3CCN(C4CCCC4)CC3)c[nH]c2c1)N1CCC(Cc2ccccc2)CC1 [Example 99, (4-Benzyl-piperidin-1-yl)-[3-(4-cyclopentyl-piperazin-1-ylmethyl)-1H-indol-6-yl]-methanone]	–	28 nM	–	–
CC(C)N1CCN(C(=O)c2ccc3c(CN4CCC(Cc5ccccc5)CC4)c[nH]c3c2)CC1 [Example 55, [3-(4-Benzyl-piperidin-1-ylmethyl)-1H-indol-6-yl]-(4-isopropyl-piperazin-1-yl)-methanone]	–	1 nM	–	–
CC(C)N1CCN(C(=O)c2ccc3c(CN4CCN(c5nccs5)CC4)c[nH]c3c2)CC1 [Example 49, (4-Isopropyl-piperazin-1-yl)-[3-(4-thiazol-2-yl-piperazin-1-ylmethyl)-1H-indol-6-yl]-methanone]	–	7 nM	–	–
O=C(c1cccc2[nH]cc(CN3CCCCC3)c12)N1CCN(C2CCC2)CC1 [Example 42, (4-Cyclobutyl-piperazin-1-yl)-(3-piperidin-1-ylmethyl-1H-indol-4-yl)-methanone]	–	1500 nM	–	–
O=C(NCc1cccnc1)c1ccc2c(CN3CCOCC3)c[nH]c2c1 [Example 10, 3-Morpholin-4-ylmethyl-1H-indole-6-carboxylic acid (pyridin-3-ylmethyl)-amide]	–	5010 nM	–	–
CC(C)N1CCN(C(=O)c2ccc3c(CN4CCCC(CO)C4)c[nH]c3c2)CC1 (stereo not drawn) [Example 44, [3-(3-Hydroxymethyl-piperidin-1-ylmethyl)-1H-indol-6-yl]-(4-isopropyl-piperazin-1-yl)-methanone]	1.07 nM	2 nM	–	–
O=C(c1ccc2c(CN3CCCN(C4CC4)CC3)c[nH]c2c1)N1CCCCC1 [Example 31, [3-(4-Cyclopropyl-[1,4]diazepan-1-ylmethyl)-1H-indol-6-yl]-piperidin-1-yl-methanone]	–	214 nM	–	–
